Laboratory results published in paper PMC6058519, “Retro-inverso follicle-stimulating hormone peptide-mediated polyethylenimine complexes for targeted ovarian cancer gene therapy” (Drug Delivery, 2018).
Where no end group is shown, it is not given here.

Experiments:
[1] = target: T1, Aminopeptidase M (leucine aminopeptidase, microsomal from porcine kidney) (Sus scrofa, UniProt P15145); experiment: In vitro stability of peptides against aminopeptidase M; format: in vitro ADME; details: aminopeptidase M 1 μg/mL, 37 °C, peptide 0.5 mg/mL, incubation up to 12 h, RP-HPLC C18, UV 214 nm, triplicate
T1 construct: purchased Sigma-Aldrich; host or cells: porcine kidney microsomes (tissue-derived)
T1 sequence (P15145 1-963): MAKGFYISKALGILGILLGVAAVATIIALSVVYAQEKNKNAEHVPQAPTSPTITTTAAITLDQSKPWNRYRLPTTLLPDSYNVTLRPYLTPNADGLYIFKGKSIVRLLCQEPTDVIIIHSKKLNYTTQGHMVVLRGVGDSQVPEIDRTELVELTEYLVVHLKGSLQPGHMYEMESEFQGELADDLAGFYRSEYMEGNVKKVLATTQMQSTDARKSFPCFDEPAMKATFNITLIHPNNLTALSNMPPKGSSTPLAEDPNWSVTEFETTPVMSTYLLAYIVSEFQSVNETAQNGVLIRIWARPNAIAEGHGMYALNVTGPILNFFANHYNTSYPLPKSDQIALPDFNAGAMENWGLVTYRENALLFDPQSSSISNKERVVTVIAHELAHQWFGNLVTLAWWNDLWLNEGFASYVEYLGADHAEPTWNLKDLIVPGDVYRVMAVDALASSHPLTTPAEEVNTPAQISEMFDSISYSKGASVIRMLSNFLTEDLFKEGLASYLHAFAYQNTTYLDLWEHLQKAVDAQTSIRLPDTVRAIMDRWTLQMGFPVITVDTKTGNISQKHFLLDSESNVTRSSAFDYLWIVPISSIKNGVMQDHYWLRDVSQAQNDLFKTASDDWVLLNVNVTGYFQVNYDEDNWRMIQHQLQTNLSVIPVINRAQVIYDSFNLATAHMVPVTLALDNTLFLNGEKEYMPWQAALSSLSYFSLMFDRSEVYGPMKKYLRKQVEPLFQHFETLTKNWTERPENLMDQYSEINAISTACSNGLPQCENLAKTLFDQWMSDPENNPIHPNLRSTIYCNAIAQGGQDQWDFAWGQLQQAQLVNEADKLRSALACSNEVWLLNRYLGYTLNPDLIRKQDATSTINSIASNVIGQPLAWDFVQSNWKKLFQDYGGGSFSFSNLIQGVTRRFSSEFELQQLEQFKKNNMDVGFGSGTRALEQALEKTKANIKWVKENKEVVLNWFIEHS
Excerpt: L-FP21, D-FP21, Rhodamine-L-FP21, and Rhodamine-D-FP21 were purchased from ChinaPeptides (Shanghai, China) (Figure S3). Rat serum was obtained from Jianlun Biology Technology Co. (Guangzhou, China). Aminopeptidase M (leucine aminopeptidase, microsomal from porcine kidney Type VI − S, lyophilized powder, EC 3.4.11.2) and the Endotoxin-free Plasmid Maxiprep Kit used to purify the plasmid DNA before application were obtained from Sigma–Aldrich (USA). Cell Counting Kit-8 (CCK-8 Kit) was purchased from Beyotime Biotechnology (Tianjing, China). Odyssey Blocking Buffer was obtained from LI-COR Biosciences (Lincoln, Nebraska, USA). The plasmids encoding enhanced green fluorescence protein (EGFP; pEGFP-N) were purchased from KeyGEN BioTECH (Nanjing, China). The vector construction of GRO-α shRNA was pcDNA6.2-GW/Emgfp-miR (Invitrogen, Carlsbad, CA), and the target knockdown gene encoding was TGGTTTT GGCCACTG. […]
The L-FP21 and D-FP21 peptides were diluted to 0.5 mg/mL and incubated at 37 °C for 12 h for the biostability test against 20% rat serum. At predetermined time intervals, 100 μL of the sample was removed and analyzed using reverse-phase high-performance liquid chromatography (HPLC; Waters Acquity H-Class Bio, Waters Co. Ltd., Milford, MA) on a bridged ethylene hybrid (BEH) C18 column (2.1 mm ×50 mm, 1.7 μm) using a gradient method. […] The peptides were then analyzed as described above. […]

[2] = In vitro stability of peptides in 20% rat serum; format: in vitro ADME; details: 37 °C, peptide 0.5 mg/mL, incubation up to 12 h, RP-HPLC C18, UV 214 nm, triplicate
Procedure: The L-FP21 and D-FP21 peptides were diluted to 0.5 mg/mL and incubated at 37 °C for 12 h for the biostability test against 20% rat serum. At predetermined time intervals, 100 μL of the sample was removed and analyzed using reverse-phase high-performance liquid chromatography (HPLC; Waters Acquity H-Class Bio, Waters Co. Ltd., Milford, MA) on a bridged ethylene hybrid (BEH) C18 column (2.1 mm ×50 mm, 1.7 μm) using a gradient method. The mobile phase A was purified water containing 0.1% (v/v) formic acid (FA). The mobile phase B was acetonitrile containing 0.1% FA. The 30-min linear elution gradient ran from 5% B to 45% B in […] at a flow rate of 0.6 mL/min with a detection wavelength of 214 nm. We used aminopeptidase to further investigate the stability of L-FP21 or D-FP21 in proteolytic enzymes. The aminopeptidase was added with a final concentration of 1 μg/mL. The peptides were then analyzed as described above. All the experiments were performed in triplicate.

YTRDLVYGDPARPGIQGTGTF [L-FP21]
time to complete degradation in aminopeptidase [1]: ≤ 6 h
time to complete degradation in rat serum [2]: ≤ 2 h
